Patent US6890727B2, “Diagnostic assay for Alzheimer's disease: assessment of Aβ abnormalities” (The General Hospital Corporation, priority 1994, dated 2005)
“Also recorded” adds a separate entry of the source.

Assays:
[1] = biological target: T1, Aβ (Homo sapiens, UniProt P05067); experiment: G50 gel filtration chromatography of Aβ in presence of metal ions or EDTA; details: 25 μM total metal ion
T1 construct: purchased Sigma; Bachem (results also replicated with peptide from the Keck Laboratory, Yale); host or cells: chemical synthesis
Procedure: Aβ was stored in aliquots of 0.52 mg/ml in water at −20° C., then kept at 4° C. when thawed. Reagents were mixed without vortex mixing. The incubated Aβ was directly applied to a G50 SF (Pharmacia, Uppsala, Sweden) column (Bio-Rad Econo-Column, 30×0.7 cm) pre-equilibrated with metal salt solution or EDTA (50 μM) in TBS at 20° C. and eluted at 8 ml/h (Wiz peristaltic pump, Isco, Lincoln, Nebr.). Absorbance was measured at 254 and 214 nm (Type 6 optical unit, Isco). The amount of Aβ eluting at various peaks was estimated from the area under the curve. […] Because the sample eluted in a volume of approximately 15 ml, the average concentration of the peptide on the column was 0.8 μM.
To study the effects of protein blocking upon adsorption of β to the chromatography column, a Sephadex G50 SF column which had been characterized previously for Aβ behavior was eluted with 3% bovine serum albumin (BSA) in TBS (50 ml) and equilibrated with non-BSA-containing buffer, subsequent to repeating the Aβ experiments.
The elution points of molecular mass standards and relative assignments of Aβ peak elutions are indicated. Mass standards were blue dextran (2×10^6 kDa, V0=void volume), BSA (66 kDa), carbonic anhydrase (29 kDa), cytochrome c (12.4 kDa), and aprotinin (6.5 kDa). The mass of Aβ is 4.3 kDa. […] Data for experiments performed in the presence of copper were taken from 214 nm readings and corrected for comparison.

[2] = biological target: T1, Aβ; experiment: SDS Tris/Tricine gel electrophoresis of Aβ incubated with Zn2+; details: Zn^2+ 200 μM, 1-24 h, 20° C.
Procedure: To further test whether zinc induces irreversible precipitation of Aβ in the absence of kaolin, Aβ incubated with Zn^2+ (200 μM, 1-24 h, 20° C.) was subjected to SDS Tris/Tricine gel electrophoresis.

[3] = Clinical study of oral zinc supplementation: cognition and plasma APP levels; format: in vivo, human
Procedure: The cerebral cortex, and especially the hippocampus, contains the highest concentrations of zinc in the body (C. J. Frederickson, M. A. Klitenick, W. I. Manton, J. B. Kirkpatrick, Brain Res. 273:335 (1983)), and is exposed to extreme fluctuations of extracellular zinc levels (0.15 to 300 μM, C. J. Frederickson, Int. Rev. Neurobiol. 31:145 (1989)), e.g. during synaptic transmission (S. Y. Assaf and S.-H. Chung, Nature 308:734 (1984); G. A. Howell, M. G. Welch, C. J. Frederickson, Nature 308:736 (1984)). The cortical vasculature contains an intraluminal zinc concentration of 20 μM (I. J. T. Davies, M. Musa, T. L. Dormandy, J. Clin. Pathol. 21:359 (1968)), but the perivascular interstitial zinc concentration is 0.15/μM (C. J. Frederickson, Int. Rev. Neurobiol. 31:145 (1989)). Both sites of high zinc concentration gradients are severely and consistently affected by the pathological lesions of AD (B. T. Hyman, G. W. Van Hoesen, L. J. Kroner, A. R. Damasio, Ann. Neurol. 20:472 (1986); G. G. Glenner and C. W. Wong, Biochem. Biophys. Res. Commun. 120:885 (1984)). […] Additional evidence for altered cerebral zinc metabolism in AD include decreased temporal lobe zinc levels (D. Wenstrup, W. D. Ehmann, W. R. Markesbery, Brain Res. 533:125 (1990); J. Constantinidis, Encephale 16:231 (1990); F. M. Corrigan, G. P. Reynolds, N. I. Ward, Biometals 6:149 (1993)), elevated (80%) CSF levels (C. O. Hershey et al, Neurology 33:1350 (1983)), an increase in extracellular Zn^2+-metalloproteinase activities in AD hippocampus (J. R. Backstrom, C. A. Miller, Z. A. Tökés, J. Neurochem. 58:983 (1992)), and decreased levels of astrocytic growth-inhibitory factor, a metallothionein-like protein which chelates zinc (Y. Uchida, K. Takio, K. Titani, Y. Ihara, M. Tomonaga, Neuron 7:337 (1991)). Recently, a clinical study assayed the effects of oral zinc supplementation (6.7-fold the recommended daily allowance, a dose commonly found in nutritional supplements) upon cognition and plasma APP levels in AD subjects and age-matched controls. […]

T1 sequence (P05067 672-711): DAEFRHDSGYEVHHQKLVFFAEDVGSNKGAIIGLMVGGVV

## [Zn+2] [Zn^2+, zinc]
[1]
  Aβ applied to the column that is eluted: < 20%
[2]
  covalent or SDS-resistant polymerization of Aβ: does not induce covalent or SDS-resistant polymerization
[3]; AD group, after four days of oral zinc supplementation
  drop in Mini-Mental State Examination scores: 31%
[3]; oral, 6.7-fold the recommended daily allowance
  effect on cognition in AD subjects: acute decline in cognition; also recorded: acutely adverse effect on cognition
[3]; same conditions
  effect on age-matched control subjects: remained unaffected
